From patent US9845330B2, “6-nitro-2,3-dihydroimidazo[2,1-b]oxazoles and a process for the preparation thereof” (priority 2013, dated 2017) come the findings set out here.

In brackets after ≈: the same amount, converted by molar mass.

Assay [1] relates to M. tuberculosis MDR (resistant to isoniazid and rifampicin). Kind of assay: microbe, parasite or virus in culture. The assay is classed as cell-based. The following applies: Mycobacterium tuberculosis, 504 h, read-out: MIC M. tb MDR.
Assay [2] concerns M. tuberculosis XDR (resistant to isoniazid, rifampicin, amikacin and moxifloxacin). Kind of assay: microbe, parasite or virus in culture. The assay is classed as cell-based. The following applies: Mycobacterium tuberculosis, 504 h, read-out: MIC M. tb XDR.

As to `C[C@]1(COc2ccc(S(=O)(=O)Nc3ccc(OC(F)(F)F)cc3)cc2)Cn2cc([N+](=O)[O-])nc2O1` [IIB2, (R)-4-{(2-methyl-6-nitro-2,3-dihydroimidazo[2,1-b]oxazol-2-yl)methoxy}-N-(4 trifluoromethoxyphenyl)benzenesulfonamide], the MIC in assay [1] and in assay [2] was 2 µg/mL (≈ 3.89 µM) each time.

For the molecule `C[C@]1(COc2ccc(-c3cc(-c4ccc(C(F)(F)F)cc4)on3)cc2)Cn2cc([N+](=O)[O-])nc2O1` [IC5, (R)-2-{4-[5-(4-trifluoromethylphenyl)isoxazol-3-yl]phenoxymethyl}-2,3-dihydro-2-methyl-6-nitroimidazo[2,1-b]oxazole], the MIC in assay [1] and in assay [2] was 1 µg/mL (≈ 2.06 µM) in each case.

As to `C[C@]1(COc2ccc(S(=O)(=O)N3CCC(c4ccccc4)CC3)cc2)Cn2cc([N+](=O)[O-])nc2O1` [IIC8, (R)-2-{4-[(4-phenylpiperidin-1-yl)sulfonyl]phenoxymethyl}-2,3-dihydro-2-methyl-6-nitroimidazo[2,1-b]oxazole], the MIC in assay [1] and in assay [2] was 0.5 µg/mL (≈ 1 µM) in each case.

Consider `C[C@]1(COc2ccc(-n3cc(-c4cccc(OC(F)(F)F)c4)nn3)cc2)Cn2cc([N+](=O)[O-])nc2O1` [IA12, (R)-2-{4-[4-(3-trifluoromethoxyphenyl)-1H-1,2,3-triazol-1-yl]phenoxymethyl}-2,3-dihydro-2-methyl-6-nitroimidazo[2,1-b]oxazole], for which the MIC in assay [1] and in assay [2] was 0.5 µg/mL (≈ 0.995 µM) in each case.

For `C[C@]1(COc2ccc(-n3cc(-c4ccc(F)cc4F)nn3)cc2)Cn2cc([N+](=O)[O-])nc2O1` [IA7, (R)-2-{4-[4-(2,4-difluorophenyl)-1H-1,2,3-triazol-1-yl]phenoxymethyl}-2,3-dihydro-2-methyl-6-nitroimidazo[2,1-b]oxazole], the MIC in assay [1] and in assay [2] was 2 µg/mL (≈ 4.4 µM) in each case.

With `C[C@]1(COc2ccc(-c3cc(COc4ccc(F)cc4)on3)cc2)Cn2cc([N+](=O)[O-])nc2O1` [IC14, (R)-2-{4-[5-(4-fluorophenoxymethyl)isoxazol-3-yl]phenoxymethyl}-2,3-dihydro-2-methyl-6-nitroimidazo[2,1-b]oxazole], the MIC in assay [1] and in assay [2] was 0.12 µg/mL (≈ 0.257 µM) in each case.

On to `C[C@]1(COc2cccc(-n3cc(COc4ccccc4F)nn3)c2)Cn2cc([N+](=O)[O-])nc2O1` [IA36], for which the MIC in assay [1] and in assay [2] was 2 µg/mL (≈ 4.29 µM) throughout.

As for `C[C@]1(COc2cccc(-n3cc(COc4ccc(F)cc4)nn3)c2)Cn2cc([N+](=O)[O-])nc2O1` [IA34], the MIC in assay [1] and in assay [2] was 0.12 µg/mL (≈ 0.257 µM) throughout.
